Measurements published in PMC7914897, “Cytotoxic Potential of a-Azepano- and 3-Amino-3,4-SeCo-Triterpenoids” (International Journal of Molecular Sciences, 2021).
Like-named read-outs stand apart in the source and are kept apart here.

Columns and labels:
[1] = tested on: NCI-H460 (NSC lung cancer); experiment: NCI-60 screen (SRB, 48 h); settings: Homo sapiens; for GI50: NCI-H460; for IC (TGI): NCI-H460, 48 h, read-out: TGI; for CC50: NCI-H460, read-out: LC50
OVCAR-3 (Ovarian cancer) = experiment: cells; settings: Homo sapiens; for GI50: OVCAR-3
[2] = tested on: NIH 3T3 (non-malignant mouse fibroblasts); experiment: SRB cytotoxicity assay, 72 h; type: cell-based; settings: NIH 3T3, 72 h, cut-off 30 µM
Outline: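 Absorbance at 570 nm of SRB-stained cells gives % survival vs untreated controls, from which EC50 is determined. Treatment: 0–30 µM serial dilutions, 72 h, beginning 24 h post-seeding; DMSO ≤0.5%. TCA (10%) fixation, acetic acid wash.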

Colon Cancer subpanel = experiment: NCI-60 screen, subpanel; settings: Homo sapiens; for IC (TGI): 48 h, read-out: TGI MG_MID; for GI50: read-out: GI50 MG_MID; for CC50: read-out: LC50 MG_MID
HCC-2998 (Colon cancer) = experiment: NCI-60 screen (SRB, 48 h); settings: Homo sapiens; for GI50: HCC 2998
Melanoma subpanel = experiment: NCI-60 screen, subpanel; settings: Homo sapiens; for IC (TGI): 48 h, read-out: TGI MG_MID; for GI50: read-out: GI50 MG_MID; for CC50: read-out: LC50 MG_MID
[3] = tested on: NCI-H226 (NSC lung cancer); experiment: NCI-60 screen (SRB, 48 h); settings: Homo sapiens; for GI50: NCI-H226
[4] = tested on: NCI-H322M (NSC lung cancer); experiment: NCI-60 screen (SRB, 48 h); settings: Homo sapiens; for IC (TGI): 48 h, read-out: TGI
OVCAR-4 (Ovarian cancer) = experiment: NCI-60 screen (SRB, 48 h); type: cell-based; settings: Homo sapiens; for IC (TGI): OVCAR-4, 48 h
786-0 (Renal cancer) = experiment: NCI-60 screen (SRB, 48 h); settings: for GI50: 786-0; for IC (TGI): 786-0, 48 h, read-out: TGI
[5] = tested on: MDA-MB-31/ATCC (Breast cancer); experiment: NCI-60 screen (SRB, 48 h); settings: Homo sapiens; for IC (TGI): 48 h, read-out: TGI
Leukemia subpanel = experiment: cells; settings: Homo sapiens; for IC (TGI): 48 h, read-out: TGI MG_MID; for GI50: read-out: GI50 MG_MID
[6] = tested on: NCI-H522 (NSC lung cancer); experiment: NCI-60 screen (SRB, 48 h); settings: Homo sapiens; for GI50: NCI-H522; for IC (TGI): NCI-H522, 48 h, read-out: TGI
MOLT-4 (Leukemia) = experiment: NCI-60 screen (SRB, 48 h); settings: Homo sapiens; for GI50: MOLT-4
LOX IMVI (Melanoma) = experiment: NCI-60 screen (SRB, 48 h); type: cell-based; settings: Homo sapiens; for GI50: read-out: GI50
KM12 (Colon cancer) = experiment: NCI-60 screen (SRB, 48 h); settings: Homo sapiens; for GI50: KM12; for IC (TGI): KM12, 48 h, read-out: TGI
CNS cancer subpanel = experiment: NCI-60 screen, subpanel; settings: Homo sapiens; for IC (TGI): 48 h, read-out: TGI MG_MID; for GI50: read-out: GI50 MG_MID
Breast cancer subpanel = experiment: NCI-60 screen, subpanel; settings: Homo sapiens; for IC (TGI): 48 h, read-out: TGI MG_MID; for GI50: read-out: GI50 MG_MID; for CC50: read-out: LC50 MG_MID
A498 (Renal cancer) = experiment: NCI-60 screen (SRB, 48 h); settings: Homo sapiens; for GI50: A498; for IC (TGI): A498, 48 h, read-out: TGI; for CC50: A498, read-out: LC50
[7] = tested on: panel of approximately 60 cancer cell lines; experiment: NCI-60 screen (SRB, 48 h), full panel; settings: for Positive Cytostatic Effect (cell lines with percent growth 0 to 50 / total) / Positive Cytotoxic Effect (cell lines with percent growth < 0 / total) / number of cancer cell lines the compound was active against: 1 dose 10 µM; for activity at 10 µM / IC (TGI) / GI50 / CC50: Homo sapiens; for activity at 10 µM / IC (TGI): 48 h; for IC (TGI): read-out: TGI MG_MID60, average over all cell lines; for CC50: read-out: LC50 MG_MID60, average over all cell lines
[8] = tested on: MDA-MB-468 (Breast cancer); experiment: cells; settings: Homo sapiens; for GI50: MDA-MB-468; for IC (TGI): MDA-MB-468, 48 h, read-out: TGI; for CC50: MDA-MB-468, read-out: LC50
UACC-257 (Melanoma) = experiment: NCI-60 screen (SRB, 48 h); settings: Homo sapiens; for GI50: UACC-257; for IC (TGI): UACC-257, 48 h, read-out: TGI
SNB-75 (CNS cancer) = experiment: NCI-60 screen (SRB, 48 h); settings: Homo sapiens; for GI50: SNB-75; for IC (TGI): SNB-75, 48 h, read-out: TGI
[9] = read-out: GI50 against all human tumor cell lines

CC1(C)CC[C@]23CC[C@]4(C)[C@H](CC[C@@H]5[C@@]6(C)CCCNC(C)(C)[C@@H]6CC[C@]54C)[C@H]2[C@H]1OC3 [Compound 7, Azepanoallobetulin]
GI50 [1]: 0.65 µM
IC (TGI) [1]: 2.2 µM
CC50 [1]: 6.12 µM
GI50 (OVCAR-3 (Ovarian cancer)): 1.62 µM
IC (TGI) (OVCAR-3 (Ovarian cancer); OVCAR-3, 48 h, read-out: TGI): 3.1 µM
CC50 (OVCAR-3 (Ovarian cancer); OVCAR-3, read-out: LC50): 5.94 µM
EC50 [2]: n.s.
IC (TGI) (Colon Cancer subpanel): 3.11 µM
GI50 (Colon Cancer subpanel): 1.58 µM
CC50 (Colon Cancer subpanel): 6.11 µM
GI50 (HCC-2998 (Colon cancer)): 1.54 µM
IC (TGI) (HCC-2998 (Colon cancer); HCC 2998, 48 h, read-out: TGI): 2.97 µM
CC50 (HCC-2998 (Colon cancer); HCC 2998, read-out: LC50): 5.72 µM
IC (TGI) (Melanoma subpanel): 3.37 µM
GI50 (Melanoma subpanel): 1.76 µM
CC50 (Melanoma subpanel): 6.52 µM
GI50 [3]: 1.7 µM
IC (TGI) ([3]; NCI-H226, 48 h, read-out: TGI): 3.47 µM
CC50 ([3]; NCI-H226, read-out: LC50): 7.09 µM
GI50 [4]: 1.64 µM
IC (TGI) [4]: 3.03 µM
CC50 ([4]; read-out: LC50): 5.6 µM
GI50 (OVCAR-4 (Ovarian cancer); OVCAR-4): 1.65 µM
IC (TGI) (OVCAR-4 (Ovarian cancer)): 3.12 µM
CC50 (OVCAR-4 (Ovarian cancer); OVCAR-4, read-out: LC50 (the source's name)): 5.88 µM
Growth % of the Most Sensitive Cell Lines (786-0 (Renal cancer); 786-0, 1 dose 10 µM): −96.23%
GI50 (786-0 (Renal cancer); Homo sapiens): 1.66 µM
IC (TGI) (786-0 (Renal cancer); Homo sapiens): 3.21 µM
CC50 (786-0 (Renal cancer); Homo sapiens, 786-0, read-out: LC50): 6.18 µM
GI50 [5]: 1.66 µM
IC (TGI) [5]: 3.2 µM
CC50 ([5]; read-out: LC50): 6.17 µM
IC (TGI) (Leukemia subpanel): 5.49 µM
GI50 (Leukemia subpanel): 1.96 µM
CC50 (Leukemia subpanel; read-out: LC50 MG_MID): 94.3 µM
GI50 [6]: 1.9 µM
IC (TGI) [6]: 3.77 µM
CC50 ([6]; NCI-H522, read-out: LC50): 7.49 µM
GI50 (MOLT-4 (Leukemia)): 2.1 µM
IC (TGI) (MOLT-4 (Leukemia); MOLT-4, 48 h, read-out: TGI): 5.04 µM
CC50 (MOLT-4 (Leukemia); MOLT-4, read-out: LC50): 74.8 µM
IC (TGI) (LOX IMVI (Melanoma); 48 h): 3.08 µM
activity at 10 µM (LOX IMVI (Melanoma); 48 h, 1 dose 10 µM, read-out: Growth % of the Most Sensitive Cell Lines): -94.9%
GI50 (LOX IMVI (Melanoma)): 1.6 µM
GI50 (KM12 (Colon cancer)): 1.86 µM
IC (TGI) (KM12 (Colon cancer)): 3.44 µM
IC (TGI) (CNS cancer subpanel): 3.51 µM
GI50 (CNS cancer subpanel): 1.58 µM
CC50 (CNS cancer subpanel; read-out: LC50 MG_MID): 10.2 µM
IC (TGI) (Breast cancer subpanel): 3.55 µM
GI50 (Breast cancer subpanel): 1.68 µM
CC50 (Breast cancer subpanel): 6.06 µM
GI50 (A498 (Renal cancer)): 1.68 µM
IC (TGI) (A498 (Renal cancer)): 3.67 µM
CC50 (A498 (Renal cancer)): 8 µM
Positive Cytostatic Effect (cell lines with percent growth 0 to 50 / total) [7]: 16/59
Positive Cytotoxic Effect (cell lines with percent growth < 0 / total) [7]: 41/58
number of cancer cell lines the compound was active against [7]: 52 cell lines
activity at 10 µM ([7]; read-out: Mean Growth, %): -27.3%
activity at 10 µM ([7]; read-out: Range of Growth, %): -99.4 to 76.4%
IC (TGI) [7]: 3.64 µM
GI50 ([7]; read-out: GI50 MG_MID60): 1.68 µM
GI50 [7, 9]: < 3 µM
GI50 ([7]; read-out: GI50 against the most sensitive cell lines): 0.2 to 0.94 µM
CC50 [7]: 17.2 µM
GI50 [8]: 1.61 µM
IC (TGI) [8]: 3.45 µM
CC50 [8]: 7.39 µM
GI50 (UACC-257 (Melanoma)): 1.92 µM
IC (TGI) (UACC-257 (Melanoma)): 3.89 µM
CC50 (UACC-257 (Melanoma); UACC-257, read-out: LC50): 7.77 µM
GI50 (SNB-75 (CNS cancer)): 1.5 µM
IC (TGI) (SNB-75 (CNS cancer)): 2.94 µM
CC50 (SNB-75 (CNS cancer); SNB-75, read-out: LC50): 5.76 µM

C[C@H]1[C@H](C)CC[C@]2(C(=O)Nc3ccc4ncccc4c3)CC[C@]3(C)C(=CC[C@@H]4[C@@]5(C)CCCNC(C)(C)[C@@H]5CC[C@]43C)[C@H]12 [Compound 14]
GI50 [1]: 1.94 µM
IC (TGI) [1]: 3.82 µM
CC50 [1]: 7.53 µM
GI50 (OVCAR-3 (Ovarian cancer)): 1.81 µM
EC50 ([2]; Mus musculus, NIH3T3, read-out: EC50): 1.69 ± 0.1 µM
IC (TGI) (Colon Cancer subpanel): 3.37 µM
GI50 (Colon Cancer subpanel): 1.66 µM
CC50 (Colon Cancer subpanel): 6.18 µM
GI50 (HCC-2998 (Colon cancer)): 1.4 µM
IC (TGI) (Melanoma subpanel): 3.32 µM
GI50 (Melanoma subpanel): 1.77 µM
CC50 (Melanoma subpanel): 6.25 µM
GI50 [3]: 2.1 µM
GI50 [4]: 1.72 µM
IC (TGI) [4]: 3.11 µM
IC (TGI) (OVCAR-4 (Ovarian cancer)): 3.25 µM
GI50 (OVCAR-4 (Ovarian cancer); OVCAR-4, read-out: GI50): 1.66 µM
GI50 (786-0 (Renal cancer); Homo sapiens): 1.85 µM
IC (TGI) (786-0 (Renal cancer); Homo sapiens): 3.48 µM
GI50 [5]: 1.8 µM
IC (TGI) [5]: 3.4 µM
IC (TGI) (Leukemia subpanel): 3.63 µM
GI50 (Leukemia subpanel): 1.58 µM
GI50 [6]: 1.75 µM
IC (TGI) [6]: 3.33 µM
GI50 (MOLT-4 (Leukemia)): 1.42 µM
GI50 (LOX IMVI (Melanoma)): 1.78 µM
GI50 (KM12 (Colon cancer)): 1.89 µM
IC (TGI) (KM12 (Colon cancer)): 3.63 µM
IC (TGI) (CNS cancer subpanel): 3.17 µM
GI50 (CNS cancer subpanel): 1.67 µM
IC (TGI) (Breast cancer subpanel): 3.44 µM
GI50 (Breast cancer subpanel): 1.76 µM
CC50 (Breast cancer subpanel): 6.87 µM
GI50 (A498 (Renal cancer)): 1.56 µM
IC (TGI) (A498 (Renal cancer)): 2.96 µM
CC50 (A498 (Renal cancer)): 5.6 µM
Positive Cytostatic Effect (cell lines with percent growth 0 to 50 / total) [7]: 3/59
Positive Cytotoxic Effect (cell lines with percent growth < 0 / total) [7]: 42/59
number of cancer cell lines the compound was active against [7]: 45 cell lines
activity at 10 µM ([7]; read-out: Mean Growth, %): -27.9%
activity at 10 µM ([7]; read-out: Range of Growth, %): -100 to 110%
IC (TGI) [7]: 3.35 µM
GI50 ([7]; read-out: GI50 MG_MID60): 1.72 µM
GI50 [7, 9]: < 3 µM
CC50 [7]: 6.52 µM
GI50 [8]: 1.74 µM
IC (TGI) [8]: 3.45 µM
CC50 [8]: 6.87 µM
GI50 (UACC-257 (Melanoma)): 1.87 µM
IC (TGI) (UACC-257 (Melanoma)): 3.54 µM
GI50 (SNB-75 (CNS cancer)): 1.52 µM
IC (TGI) (SNB-75 (CNS cancer)): 3.09 µM
